Reference: PubChem BioAssay (NCI)
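Five compound concentrations were applied to cells in 96-well plates for 48 hours; endpoints were derived by simple linear interpolation of the resulting dose-response curve. GI50 = concentration required for 50% inhibition of growth. At the TGI there is no net growth.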

Key:
Assay in all cases: DTP human tumour cell line panel, 48 h
[1] = test system: 786-0 renal
[2] = test system: A498 renal
[3] = test system: A549 NSCLC
[4] = test system: ACHN renal
[5] = test system: CAKI-1 renal
[6] = test system: CCRF-CEM leukemia
[7] = test system: COLO 205 colon
[8] = test system: HCT-116 colon
[9] = test system: HCT-15 colon
[10] = test system: HOP-92 NSCLC
[11] = test system: K-562 leukemia
[12] = test system: LOX IMVI melanoma
[13] = test system: M14 melanoma
[14] = test system: MALME-3M melanoma
[15] = test system: MCF7 breast
[16] = test system: MOLT-4 leukemia
[17] = test system: NCI-H226 lung
[18] = test system: NCI-H460 lung
[19] = test system: NCI/ADR-RES ovarian
[20] = test system: OVCAR-5 ovarian
[21] = test system: OVCAR-8 ovarian
[22] = test system: RPMI-8226 leukemia
[23] = test system: SF-268 CNS
[24] = test system: SF-295 CNS
[25] = test system: SF-539 CNS
[26] = test system: SK-MEL-2 melanoma
[27] = test system: SK-MEL-28 melanoma
[28] = test system: SN12C renal
[29] = test system: SR leukemia
[30] = test system: SW-620 colon
[31] = test system: TK-10 renal
[32] = test system: U251 CNS
[33] = test system: UACC-257 melanoma
[34] = test system: UACC-62 melanoma
[35] = test system: UO-31 renal
[36] = test system: HL-60(TB) leukemia
[37] = test system: HT29 colon
[38] = test system: PC-3 prostate
[39] = test system: SK-OV-3 ovarian
[40] = test system: SNB-19 CNS
[41] = test system: BT-549 breast
[42] = test system: DU-145 prostate
[43] = test system: EKVX NSCLC
[44] = test system: HCC-2998 colon
[45] = test system: HOP-62 NSCLC
[46] = test system: HS 578T breast
[47] = test system: KM12 colon
[48] = test system: MDA-MB-231 breast
[49] = test system: MDA-MB-435
[50] = test system: NCI-H23 lung
[51] = test system: NCI-H522 lung
[52] = test system: OVCAR-3 ovarian
[53] = test system: SK-MEL-5 melanoma
[54] = test system: IGROV1 ovarian
[55] = test system: OVCAR-4 ovarian
[56] = test system: RXF 393 renal
[57] = test system: SNB-75 CNS
[58] = test system: T-47D breast

COc1cc([C@@H]2c3cc4c(cc3[C@@H](Nc3ccc(C(=O)N[C@H]5CCc6cc(OC)c(OC)c(OC)c6-c6ccc(SC)c(=O)cc65)cc3)[C@H]3COC(=O)[C@H]23)OCO4)cc(OC)c1O
TGI [1]: 19.7 µM | TGI [2]: 21.8 µM | TGI [3]: > 100 µM | TGI [4]: 22.2 µM | TGI [5]: 13.4 µM | TGI [6]: 16.1 µM | TGI [7]: 12.7 µM | TGI [8]: > 100 µM | TGI [9]: > 100 µM | TGI [10]: 19.3 µM | TGI [11]: > 100 µM | TGI [12]: > 100 µM | TGI [13]: 52.2 µM | TGI [14]: 15.1 µM | TGI [15]: 83 µM | TGI [16]: 10.9 µM | TGI [17]: > 100 µM | TGI [18]: 14.2 µM | TGI [19]: 17.3 µM | TGI [20]: > 100 µM | TGI [21]: > 100 µM | TGI [22]: 38.8 µM | TGI [23]: > 100 µM | TGI [24]: > 100 µM | TGI [25]: > 100 µM | TGI [26]: 15.1 µM | TGI [27]: > 100 µM | TGI [28]: 16.4 µM | TGI [29]: 0.149 µM | TGI [30]: 49.1 µM | TGI [31]: > 100 µM | TGI [32]: 15.2 µM | TGI [33]: > 100 µM | TGI [34]: 17.2 µM | TGI [35]: 86.4 µM

Cc1ccc(C)c(/C=C2\CN(C(=O)OC(C)(C)C)C/C(=C\c3cc(C)ccc3C)C2=O)c1
GI50 [4]: 3.07 µM | TGI [4]: > 100 µM | GI50 [5]: 2.89 µM | TGI [5]: > 100 µM | GI50 [6]: 2.49 µM | TGI [6]: > 100 µM | GI50 [8]: 1.43 µM | TGI [8]: 5.34 µM | GI50 [36]: 2.52 µM | TGI [36]: > 100 µM | GI50 [37]: 3.26 µM | TGI [37]: > 100 µM | GI50 [11]: 2.94 µM | TGI [11]: > 100 µM | GI50 [13]: 2.99 µM | TGI [13]: > 100 µM | GI50 [15]: 1.94 µM | TGI [15]: > 100 µM | GI50 [16]: 2.78 µM | TGI [16]: > 100 µM | GI50 [19]: 3.48 µM | TGI [19]: > 100 µM | GI50 [21]: 3.56 µM | TGI [21]: > 100 µM | GI50 [38]: 2.71 µM | TGI [38]: > 100 µM | GI50 [23]: 2.76 µM | TGI [23]: > 100 µM | GI50 [39]: > 100 µM | TGI [39]: > 100 µM | GI50 [40]: 2.68 µM | TGI [40]: > 100 µM | GI50 [29]: 2.53 µM | TGI [29]: > 100 µM

COc1cc([N+](=O)[O-])c(OC)cc1-c1nc2sc(Cl)cn2c1/C=N/NC1=NCCN1
GI50 [1]: 0.487 µM | TGI [1]: 1.13 µM | GI50 [2]: 1.85 µM | TGI [2]: 3.57 µM | GI50 [4]: 1.32 µM | TGI [4]: 2.6 µM | GI50 [41]: 2.69 µM | TGI [41]: 5.95 µM | GI50 [5]: 12.9 µM | TGI [5]: 51.7 µM | GI50 [7]: 1.33 µM | TGI [7]: 3.7 µM | GI50 [42]: 0.306 µM | TGI [42]: 1.14 µM | GI50 [43]: 2.33 µM | TGI [43]: 5.64 µM | GI50 [44]: 0.597 µM | TGI [44]: 1.22 µM | GI50 [8]: 0.249 µM | TGI [8]: 0.616 µM | GI50 [9]: 1.64 µM | TGI [9]: 2.99 µM | GI50 [45]: 1.2 µM | TGI [45]: 2.53 µM | GI50 [46]: 2.22 µM | TGI [46]: 4.94 µM | GI50 [37]: 0.269 µM | GI50 [11]: 3.56 µM | TGI [11]: > 100 µM | GI50 [47]: 0.833 µM | TGI [47]: 2.49 µM | GI50 [12]: 1.74 µM | TGI [12]: 3.25 µM | GI50 [13]: 1.39 µM | TGI [13]: 2.8 µM | GI50 [15]: 0.431 µM | TGI [15]: > 100 µM | GI50 [48]: 1.49 µM | TGI [48]: 3.18 µM | GI50 [49]: 3.65 µM | TGI [49]: > 100 µM | GI50 [50]: 0.937 µM | TGI [50]: 2.42 µM | GI50 [18]: 0.322 µM | TGI [18]: > 100 µM | GI50 [51]: 2.93 µM | TGI [51]: > 29.7 µM | GI50 [19]: > 100 µM | TGI [19]: > 100 µM | GI50 [52]: 0.882 µM | TGI [52]: 2.62 µM | GI50 [20]: 0.878 µM | TGI [20]: 2.3 µM | GI50 [38]: 1.71 µM | TGI [38]: 3.16 µM | GI50 [24]: 2.74 µM | TGI [24]: 52.8 µM | GI50 [25]: 0.184 µM | TGI [25]: 0.352 µM | GI50 [26]: 22.9 µM | TGI [26]: > 100 µM | GI50 [53]: 0.83 µM | TGI [53]: 2.19 µM | GI50 [39]: 1.88 µM | TGI [39]: 3.48 µM | GI50 [28]: 1.67 µM | TGI [28]: 3.52 µM | GI50 [29]: 0.228 µM | TGI [29]: 0.45 µM | GI50 [31]: 1.89 µM | TGI [31]: 3.36 µM | GI50 [32]: 1.65 µM | TGI [32]: 3.02 µM | GI50 [33]: 2.23 µM | TGI [33]: 4.43 µM | GI50 [35]: 0.966 µM

CCCCCCCCCCCCOC1C(CNC(=O)C2OC3OC(C)(C)OC3C2NC(=O)Nc2ccc(CC(=O)NC(Cc3ccccc3)C(=O)O)cc2)OC2OC(C)(C)OC21 (configuration not stated)
GI50 [1]: > 25 µM | TGI [1]: > 25 µM | GI50 [2]: > 25 µM | TGI [2]: > 25 µM | GI50 [3]: > 25 µM | TGI [3]: > 25 µM | GI50 [4]: > 25 µM | TGI [4]: > 25 µM | GI50 [41]: 22.7 µM | TGI [41]: > 25 µM | GI50 [5]: > 25 µM | TGI [5]: > 25 µM | GI50 [7]: > 25 µM | TGI [7]: > 25 µM | GI50 [42]: > 25 µM | TGI [42]: > 25 µM | GI50 [43]: > 25 µM | TGI [43]: > 25 µM | GI50 [44]: > 25 µM | TGI [44]: > 25 µM | GI50 [8]: > 25 µM | TGI [8]: > 25 µM | GI50 [9]: > 25 µM | TGI [9]: > 25 µM | GI50 [36]: > 25 µM | TGI [36]: > 25 µM | GI50 [45]: > 25 µM | TGI [45]: > 25 µM | GI50 [10]: > 25 µM | TGI [10]: > 25 µM | GI50 [46]: 9.2 µM | TGI [46]: > 25 µM | GI50 [37]: > 25 µM | TGI [37]: > 25 µM | GI50 [54]: 22.5 µM | TGI [54]: > 25 µM | GI50 [11]: > 25 µM | TGI [11]: > 25 µM | GI50 [47]: > 25 µM | TGI [47]: > 25 µM | GI50 [12]: > 25 µM | TGI [12]: > 25 µM | GI50 [13]: > 25 µM | TGI [13]: > 25 µM | GI50 [14]: > 25 µM | TGI [14]: > 25 µM | GI50 [15]: > 25 µM | TGI [15]: > 25 µM | GI50 [48]: > 25 µM | TGI [48]: > 25 µM | GI50 [49]: > 25 µM | TGI [49]: > 25 µM | GI50 [16]: > 25 µM | TGI [16]: > 25 µM | GI50 [17]: > 25 µM | TGI [17]: > 25 µM | GI50 [50]: > 25 µM | TGI [50]: > 25 µM | GI50 [18]: > 25 µM | TGI [18]: > 25 µM | GI50 [51]: > 25 µM | TGI [51]: > 25 µM | GI50 [19]: > 25 µM | TGI [19]: > 25 µM | GI50 [52]: > 25 µM | TGI [52]: > 25 µM | GI50 [55]: > 25 µM | TGI [55]: > 25 µM | GI50 [20]: > 25 µM | TGI [20]: > 25 µM | GI50 [21]: > 25 µM | TGI [21]: > 25 µM | GI50 [38]: > 25 µM | TGI [38]: > 25 µM | GI50 [22]: 15.9 µM | TGI [22]: > 25 µM | GI50 [56]: 13.3 µM | TGI [56]: > 25 µM | GI50 [23]: > 25 µM | TGI [23]: > 25 µM | GI50 [24]: > 25 µM | TGI [24]: > 25 µM | GI50 [25]: > 25 µM | TGI [25]: > 25 µM | GI50 [26]: > 25 µM | TGI [26]: > 25 µM | GI50 [27]: > 25 µM | TGI [27]: > 25 µM | GI50 [53]: > 25 µM | TGI [53]: > 25 µM | GI50 [39]: > 25 µM | TGI [39]: > 25 µM | GI50 [28]: > 25 µM | TGI [28]: > 25 µM | GI50 [40]: > 25 µM | TGI [40]: > 25 µM | GI50 [57]: > 25 µM | TGI [57]: > 25 µM | GI50 [30]: > 25 µM | TGI [30]: > 25 µM | GI50 [58]: 16.3 µM | TGI [58]: > 25 µM | GI50 [31]: > 25 µM | TGI [31]: > 25 µM | GI50 [32]: > 25 µM | TGI [32]: > 25 µM | GI50 [33]: > 25 µM | TGI [33]: > 25 µM | GI50 [34]: > 25 µM | TGI [34]: > 25 µM | GI50 [35]: > 25 µM | TGI [35]: > 25 µM
